Like-named read-outs stand apart in the source and are kept apart here. Starred links: 1 amine or outer side, 2 acyl side, 3 side chain; linkers in the order of their positions; H or OH if unused. Non-standard residues stand in square brackets, D forms with d. Residues, ends and D or L forms follow the SMILES beside them. *: point of attachment. Benzoyl(4-SiFtBu2) = CC(C)(C)[Si](F)(c1ccc(C(=O)*)cc1)C(C)(C)C; DOTA = O=C(O)CN1CCN(CC(=O)O)CCN(CC(=O)*)CCN(CC(=O)O)CC1; d(γGlu) = O=C(O)[C@@H](CCC(=O)[*:2])N[*:1]; 1Nal = N[C@@H](Cc1cccc2ccccc12)C(=O)O; Hyp = O=C(O)[C@@H]1C[C@@H](O)CN1; NMeNle = CCCC[C@H](NC)C(=O)O; PEG4 = NCCOCCOCCOCCOCCC(=O)O; dDap = NC[C@@H](N)C(=O)O
Target: T1, CCK-2R (Rattus norvegicus, UniProt P30553)
T1 construct: The CCK-2R expressing rat pancreatic tumor cells AR4-2J; host or cells: AR4-2J rat pancreatic tumor cells
T1 sequence (P30553 1-452): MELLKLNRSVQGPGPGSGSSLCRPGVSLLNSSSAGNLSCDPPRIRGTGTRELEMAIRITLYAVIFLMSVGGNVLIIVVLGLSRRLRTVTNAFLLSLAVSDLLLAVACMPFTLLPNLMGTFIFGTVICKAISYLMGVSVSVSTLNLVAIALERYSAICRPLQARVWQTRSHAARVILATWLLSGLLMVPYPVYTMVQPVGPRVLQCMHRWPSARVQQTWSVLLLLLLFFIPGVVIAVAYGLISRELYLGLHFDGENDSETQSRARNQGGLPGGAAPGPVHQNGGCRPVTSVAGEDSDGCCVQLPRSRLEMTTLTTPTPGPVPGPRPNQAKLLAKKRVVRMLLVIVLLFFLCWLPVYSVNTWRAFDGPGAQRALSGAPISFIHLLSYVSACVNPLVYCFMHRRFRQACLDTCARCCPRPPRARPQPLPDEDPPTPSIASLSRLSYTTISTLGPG
Experiment: Determination of IC50: CCK-2R affinity on AR4-2J cells, competition with [^177Lu]Lu-DOTA-PP-F11N
Format: binding
Settings: AR4-2J cells
In short: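 Competitive displacement of 0.3 pmol/well [177Lu]Lu-DOTA-PP-F11N by compounds (10^-10 to 10^-4 M) on AR4-2J cells in BSA-supplemented medium, 3 h at 37 °C. Free label was collected from medium plus PBS rinse, and cell-bound label was recovered with 1 M NaOH, both measured by γ-counter. Each IC50 was determined twice, in triplicate.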

Structure (SMILES): CCCC[C@@H](C(=O)N[C@@H](CC(=O)O)C(=O)N[C@@H](Cc1cccc2ccccc12)C(N)=O)N(C)C(=O)[C@H](Cc1c[nH]c2ccccc12)NC(=O)CCOCCOCCOCCOCCNC(=O)CC[C@@H](NC(=O)[C@@H]1C[C@@H](O)CN1C(=O)[C@@H]1C[C@@H](O)CN1C(=O)[C@@H]1C[C@@H](O)CN1C(=O)[C@@H]1C[C@@H](O)CN1C(=O)[C@@H]1C[C@@H](O)CN1C(=O)[C@@H]1C[C@@H](O)CN1C(=O)CC[C@@H](NC(=O)[C@@H](CNC(=O)c1ccc([Si](F)(C(C)(C)C)C(C)(C)C)cc1)NC(=O)CN1CCN(CC(=O)O)CCN(CC(=O)O)CCN(CC(=O)O)CC1)C(=O)O)C(=O)O [DOTA-rhCCK-84, DOTA-dap(SiFA)-γ-glu-(Hyp)6-γ-glu-(PEG)3-Trp-(N-Me)Nle-Asp-1-Nal-NH2] ({DOTA}-[dDap](Benzoyl(4-SiFtBu2))[d(γGlu)][Hyp][Hyp][Hyp][Hyp][Hyp][Hyp][d(γGlu)][PEG4]W[NMeNle]D[1Nal]-NH2)
- IC50 (read-out: IC50 [nM] (n = 3), ^natGa-labeled, ^natGa-labeled): 27.7 ± 3.1 nM
- IC50 (read-out: IC50 [nM] (n = 3), ^natLu-labeled, ^natLu-labeled): 7.87 ± 0.3 nM
